The text below walks through data of article PMC8570331, “8-Hydroxyquinoline-Amino Acid Hybrids and Their Half-Sandwich Rh and Ru Complexes: Synthesis, Anticancer Activities, Solution Chemistry and Interaction with Biomolecules” (International Journal of Molecular Sciences, 2021).

Like-named read-outs stand apart in the source and are kept apart here.

A short description of data set [1]: Proton dissociation constants of the ligands (pH-potentiometry, UV-vis, 1H NMR titrations). Format: physicochemical. The settings on record: for pKa: aqueous solution, I = 0.2 M KNO3, T = 25.0 °C. The method, then: pH-potentiometric measurements were carried out at 25.0 ± 0.1 °C in water in the pH range between 2.0 and 11.5 and at a constant ionic strength of 0.2 M KNO3. The titrations were performed in a carbonate-free KOH solution (0.20 M). The exact concentrations of HNO3 and KOH solutions were determined by pH-potentiometric titrations. An Orion 710A pH-meter equipped with a Metrohm combined electrode (type 6.0234.100) and a Metrohm 665 Dosimat burette were used for the pH-potentiometric measurements. […] The average water ionization constant, pKw, was determined as 13.76 ± 0.01, which is in good agreement with the literature data. The initial volume of the samples was 5.0 mL. The ligand concentration was 1.75 or 2.0 mM. Samples were degassed by bubbling purified argon through them for about 10 min prior to the measurements, and the inert gas was also passed over the solutions during the titrations. The computer program Hyperquad2013 [46] was utilized to establish the stoichiometry of the species and to calculate the equilibrium constants, similarly to that performed in our previous works.
(§1) Agilent Cary 8454 diode array spectrophotometer was utilized to obtain UV-vis spectra in the wavelength range 190–1100 nm. The path length (ℓ) was 1 cm in most cases (the actual ℓ is always indicated in the legends of the figures). The concentrations of the ligands and complexes were between 88 and 240 µM. For HSA and ct-DNA containing samples, complex concentrations were 100 µM, and 0.5 and 2 equiv. biomolecule were added for kinetic studies, respectively. Individual samples contained 0–20 µM HSA and 0–1.75 mM (nucleotide) ct-DNA. Spectra were always background corrected. The computer program HypSpec was used to obtain stability constants.
(§2) Bruker Avance III HD Ascend 500 Plus instrument (Billerica, MA, USA) was used for NMR studies. ^1H NMR spectroscopic measurements were carried out with a WATERGATE water suppression pulse scheme in the presence of 10% (v/v) D2O in most cases. DSS internal standard was added to samples to obtain reference peaks. Complex concentrations were 0.5 mM or 1.0 mM, and 0.5 equiv. HSA was added. ^1H NMR titrations were carried out in the presence of 0.2 M KNO3. With the FHA model peptide, the measurements were performed at 0.5 or 1 mM metal complex concentrations, and 1:1, 1:2 or 2:1 peptide-to-metal complex ratios were applied. The computer program HypSpec was used to obtain stability constants.

Data set [2] is described as follows: Distribution coefficients, shake-flask n-octanol/buffered aqueous solution. Format: physicochemical. The note with it: pH 7.4, n-octanol/buffer, in 100 mM KCl, read-out: logD7.4. On the procedure: It is worth noting that these amino acid hybrids have excellent water solubility due to their zwitterionic form, unlike most 8-hydroxyquinolines.
Distribution coefficients of the ligands as well as of the complexes were determined at pH = 7.4 using the traditional shake-flask method in n-octanol/buffered aqueous solution (20 mM phosphate) at different chloride ion concentrations (4, 24 and 100 mM) using UV-vis spectrophotometry for the analysis. The measurement and data evaluation were performed as described in our former work.

Data set [3] in a line: Formation constants of RhCp* complexes by ligand displacement with 2-picolylamine. The note with it: pH 7.4, displacement by 2-picolylamine, UV-vis, chloride-free. Format: physicochemical.
Text: Besides 2-picolylamine, the rigid aromatic 1,10-phenantroline (phen, Figure 6) or the excess of the 8-hydroxyquinoline ligand itself (Figure S20) also results in the loss of p-cymene. Two main processes were seen upon the addition of two equiv. phen to the complex (Figure 6). The first step is most probably the loss of the arene ring and the formation of a mixed-ligand complex [Ru(II)(HQCl-D-ProH−1)(phen)(H2O)2]^+ (λmax = 500 nm), which is followed by the slower binding of the second phen.
as §1

Data set [4] can be described thus: Rate of complex formation followed by UV-vis. The note with it: pH 0.7, equimolar ligand and [M(arene)(H2O)3]2+. It counts as physicochemical. The method, then: The complex formation processes were followed in the absence of chloride ions, similar to our previous studies, to obtain comparative data. Time dependence of UV-vis spectra recorded for the equimolar solution of the ligand and [M(arene)(H2O)3]^2+ at pH 0.7 and 4.1 was followed. The charge-transfer band in the 340–500 nm region is a good indicator for complexation. […] The equilibration time decreased to <2 min for both RhCp* complexes at pH 4.1, while ~1.5 h was needed for the RuCym complexes, as it is shown in Figure S18. Although, in the isolated solid complexes, the neutral ligands are coordinated, in solution under this condition, the formation of complexes with the general formula [M(arene)(HQCl-D-(h)ProH−1)(H2O)]^+ is expected due to the deprotonation of the non-coordinating carboxyl group. In summary, these findings clearly indicate the high stability of the title complexes and the considerable difference in the rate of complex formation with the two types of metal ions.
Agilent Cary 8454 diode array spectrophotometer was utilized to obtain UV-vis spectra in the wavelength range 190–1100 nm. The path length (ℓ) was 1 cm in most cases (the actual ℓ is always indicated in the legends of the figures). The concentrations of the ligands and complexes were between 88 and 240 µM. […]

Data set [5] concerns human serum albumin (HSA). Nature of the data set: CD spectroscopy of HSA secondary structure. It counts as binding. The note with it: up to 5 equivalents complex, 50% without complex. The method, then:
Possible changes in the secondary structure of HSA due to its interaction with the RhCp* and RuCym complexes of HQCl-D-hPro were investigated by CD spectroscopy. HSA is mostly composed of α-helices, and its CD spectrum can be characterized by two negative bands (208 and 222 nm). […] Only at higher complex excess (>10) we observed somewhat larger changes; however, such protein-to-complex ratios are far from the biologically relevant conditions.
CD spectroscopy experiments were performed by a JASCO-J-1500 (ABL&E–JASCO Hungary Ltd., Budapest, Hungary) spectrometer using 0.2 or 1 cm optical path length in the wavelength range from 200 to 250 or to 350 nm. The scanning speed was 200 nm/min. The analytical concentration of HSA and ct-DNA was constant (2 and 98 µM, respectively), and the concentration of the complexes was varied (0–26 and 0–47 µM, respectively).

A short description of data set [6]: Solution stability of the complexes by 1H NMR. Format: physicochemical. The settings on record: pH 0.7, 24 h equilibration, 500 μM. The method, then: as §2

For `O=C(O)[C@H]1CCCCN1Cc1cc(Cl)c2cccnc2c1O` [HQCl-D-hPro, (R)-5-chloro-7-((homoproline-1-yl)methyl)8-hydroxyquinoline], the pKa in data set [1] (1H NMR, read-out: pKa (NhPro/ProH+)) is more than 11; in data set [1] (1H NMR, read-out: pKa (NqH+)), 2.52 ± 0.03; in data set [1] (1H NMR, read-out: pKa (OH)), 7.54 ± 0.02; in data set [1] (UV-vis, read-out: pKa (NhPro/ProH+)), 11.43 ± 0.01; in data set [1] (UV-vis, read-out: pKa (NqH+)), 2.43 ± 0.01; in data set [1] (UV-vis, read-out: pKa (OH)), 7.49 ± 0.04. Besides, the pKa in data set [1] (pH-potentiometry, read-out: pKa (NhPro/ProH+)) was more than 11; in data set [1] (pH-potentiometry, read-out: pKa (NqH+)) it was 2.42 ± 0.04; in data set [1] (pH-potentiometry, read-out: pKa (OH)), 7.52 ± 0.06. Besides, the “fraction of the negatively charged species (O−, COO−, NhPro/ProH+)” value in data set [1] (at pH 7.4) was found to be 42%. In addition, the logD in data set [2] was 0.36.
Turning to `Cc1c(C)c(C)[c-](C)c1C.O=C(O)[C@H]1CCC[NH+]1Cc1cc(Cl)c2cccnc2c1[O-].[Cl-].[Cl-].[Rh+3]` [RhCp*–HQCl-D-Pro, [RhCp*(HQCl-D-Pro)Cl]Cl], in data set [3], the “stability constant logK of the RhCp* complex” value is 13.48 ± 0.03. In data set [4], the “time to reach complex formation equilibrium” value is listed as ~ 30 min.
Regarding `Cc1c(C)c(C)[c-](C)c1C.O=C(O)[C@H]1CCCC[NH+]1Cc1cc(Cl)c2cccnc2c1[O-].[Cl-].[Cl-].[Rh+3]` [RhCp*–HQCl-D-hPro, [RhCp*(HQCl-D-hPro)Cl]Cl], the “α-helix content of HSA in the presence of the complex” value in data set [5] is given as 47%. The “stability constant logK of the RhCp* complex” value in data set [3] amounted to 13.35 ± 0.03. In addition, in data set [4], the “time to reach complex formation equilibrium” value is reported as ~ 3 min. Further, the “fraction of complex dissociated” value in data set [6] is recorded as ~ 3%.
As for `Cc1ccc(C(C)C)cc1.O=C(O)[C@H]1CCCC[NH+]1Cc1cc(Cl)c2cccnc2c1[O-].[Cl-].[Cl-].[Ru+2]` [RuCym–HQCl-D-hPro, [RuCym(HQCl-D-hPro)Cl]Cl], the “α-helix content of HSA in the presence of the complex” value in data set [5] is 46%. For the same compound, in data set [6], the “fraction of complex dissociated” value was ~ 2%.
